Reference: patent publication US20080187927A1, “USING HUG1 PROMOTER AND A REPORTER GENE TO DETECT GENOTOXICITY AND GENOPROTECTION” (priority 2006, published 2008)
Counter-ions that a name gives are not always drawn. Like-named read-outs stand apart in the source and are kept apart here.

Tests used:
SPY1102 (mag1Δ) = experiment: Viability of SPY1102 after genotoxin exposure; format: cell-based, S. cerevisiae; conditions: after four hours of exposure
[1] = tested on: SPY1103 (mre11aΔ, HUG1P-GFP)
Experimental: Yeast having a MRE11 deletion (SPY1103; also called mre11aΔ) were created from SPY1101.
(§1) Briefly, two hours after exposure, 1 ml of each culture-was removed and the OD600 was recorded to monitor cell proliferation. The cells were then washed in PBS and re-suspended to an OD600 of 0.2, and placed in the dark on ice until flow cytometry analysis. This process was repeated after 4, 6 and 8 hours after exposure.

[2] = tested on: SPY1102 (mag1Δ, HUG1P-GFP)
Experimental: as §1

SPY1103 (mre11aΔ) = experiment: Viability of SPY1103 after genotoxin exposure; format: cell-based, S. cerevisiae; conditions: exposed to MMS
SPY1101 (HUG1P-GFP) = tested on: SPY1101 (HUG1P-GFP)
From the text: Yeast having a HUG1-GFP promoter/reporter construct (called SPY1101; genotype is W303 MA:Ta/a ura3-52/ura3-52 his3::hisG/his3::hisG leu2::hisG/leu2::hisG HUG1P-GFP::HIS3/HUG1P-HUG1) were derived from S. cerevisiae strain SPY810 (wild-type yeast; genotype is W303 MATa/a ura3-52/ura3-52 his3::hisG/his3::hisG/leu2::hisG/leu2::hisG) using a PCR-based gene deletion method. Longtine M, et al., “Additional modules for versatile and economical PCR-based gene deletion and modification in Saccharomyces cerevisiae,” Yeast 14:953-961 (1998), incorporated herein by reference as if set forth in its entirety. Briefly, plasmid pFA6a-GFP(S65T)-His3MX6 (kindly provided by John Pringle at The University of North Carolina at Chapel Hill (Chapel Hill, N.C.); see also, Longtine et al., supra.), which contains GFP-S65T, was isolated from Escherichia coli DHα with a QIAprep Spin Miniprep Kit (Qiagen; Santa Clarita, Calif.).
Yeast from Example 1 (SPY1101) were exposed to the genotoxins shown in Table 2, which included alkylating agents, oxidizing agents, ribonucleotide reductase inhibitors, UV mimetic agents, glycopeptide antibiotics, quinoline-based alkaloids and ionizing radiation. Each genotoxin was added directly to a culture of SPY1101. Fresh phleomycin (Sigma) was aliquoted in water at a concentration of 20 mg/ml and stored at −20° C. until culture exposure. Likewise, CPT (Sigma) was aliquoted in dimethylsulfoxide (DMSO) at a concentration of 10 mg/ml and stored at −20° C. until culture exposure. All samples exposed to CPT were adjusted with DMSO, such that the final concentration of DMSO in the culture was 1% (v/v), regardless of CPT dose. γ-ray exposure was done using a Cs^137 source (exposure was 7 Gy/min and ended when the desired dose was reached). For all genotoxins (except γ-ray), exposure was continuous.
All DNA damage experiments included a minimum of three independent trials. SPY1101 were grown in rich medium (see, Sherman, supra) at 30° C. and with gentle shaking at 250 rpm to mid log-phase and then diluted to an OD600 of 0.1. After dilution, the culture was divided into 10 ml aliquots for exposure to one of the DNA damaging agents listed above. One culture aliquot was treated as a control and received no genotoxin, while the other aliquots each received one of seven different doses of the genotoxin, as listed in Table 2. In addition, SPY810 (wild-type control) were similarly treated. All cultures were then returned to 30° C. for incubation.
One hour after exposure, 1 ml of each culture was removed, and the OD600 was recorded to monitor culture growth. The cells were washed in PBS, re-suspended in fresh PBS to an OD600 of 0.2 and then placed in the dark on ice until flow cytometry analysis. This process was repeated every hour until eight hours had passed since the initial genotoxin exposure. The process was also repeated at twenty-four hours after initial genotoxin exposure.
Flow cytometry analysis was conducted as follows. For each replicate, at least 10,000 cells were analyzed for fluorescence using a flow cytometer (Becton Dickinson; Franklin Lakes, N.J.), and GFP induction analysis was performed with CellQuest™ and Flow-Jo software. Surviving cells were defined as whole cells (measured with light scattering) with intact cellular membranes (measured by exclusion of propidium iodide). All surviving cells were gated and used to measure GFP expression of the population. GFP expression histograms were prepared with WinMDI (available on the world wide web), using a live/dead gate based on propidium iodide exclusion. Histograms were created using a smoothing setting of 5.
SPY1101 were also exposed to general cell stress. All general cell stress experiments consisted of a minimum of three independent trials. SPY1101 were grown in rich medium at 30° C. and with gentle shaking at 250 rpm to mid log-phase and then diluted to an OD600 of 0.1. After dilution, the culture was divided into aliquots.

SPY810 (wild-type yeast) = experiment: Fluorescence of wild-type control yeast SPY810 after genotoxin exposure; format: cell-based, S. cerevisiae; conditions: 0.01% MMS for six hours
Experimental: In addition, SPY810 (wild-type control) were similarly treated.
Flow cytometry analysis was conducted as follows. […] Histograms were created using a smoothing setting of 5.

[3] = tested on: SPY1105 (mag1Δ/mre11bΔ, HUG1P-GFP)
Experimental: as §1

For `COS(C)(=O)=O` [MMS, methyl methanesulfonate], the “viability compared to SPY810 or SPY1101” value (SPY1102 (mag1Δ)) was “less viable”, the “fluorescence induction at peak fluorescence” value ([1]; MMS, at its peak fluorescence) was 49 fold and the “Relative Fluorescence” value ([1]; dose 0.0005%, exposure 6 h) was 2.7. The Relative Fluorescence ([2]; 0.0005% MMS) was 34, the peak fluorescence ([2]; 0.005% MMS) was 154 fold and the “Relative Fluorescence” value ([2]; dose 0.0001%, exposure 4 h) was 3.0. For the same molecule, the “viability compared to SPY1101” value (SPY1103 (mre11aΔ)) was “no difference in viability”, the Relative Fluorescence (SPY1101 (HUG1P-GFP); 0.0005% MMS (dose-response)) was 4 and the “increase of fluorescence compared to untreated cells” value (SPY1101 (HUG1P-GFP); 0.0005% MMS, after 6 hours) was 2.4 fold. For the same molecule, the fluorescence upregulation (SPY1101 (HUG1P-GFP); 0.005% MMS) was 97 fold, the “optimum (peak) fluorescence” value (SPY1101 (HUG1P-GFP); 0.01% MMS) was 1.48 fold and the “increase of fluorescence (minimum induction time)” value (SPY1101 (HUG1P-GFP); 0.01% MMS, after 75 minutes) was 3 fold. The “Relative Fluorescence” value (SPY1101 (HUG1P-GFP); dose 0.0005%, exposure 6 h) was 2.4, the “fluorescence of wild type control” value (SPY810 (wild-type yeast)) was “did not fluoresce” and the relative fluorescence induction ([3]; 0.005% MMS (peak)) was 49 fold. The “Relative Fluorescence” value ([3]; dose 0.0001%, exposure 4 h) was 2.2.

For `Cl` [HCl], the “maximum induction of GFP fluorescence” value (SPY1101 (HUG1P-GFP); 1, 5, 10 or 15% (v/v) 1 N HCl, positive threshold >2 fold) was 1.5 fold.

With `C=O` [formaldehyde] the “dose-dependent GFP expression” value (SPY1101 (HUG1P-GFP); doses of Table 2, up to 24 h) was “No dose-dependent induction of GFP expression”.
